Each block holds one molecule with its values, some of them ahead of it. Where a SMILES comes first, the peptide text is derived from it. The star is where a group is joined. 5TAMRA = CN(C)c1ccc2c(c1)Oc1cc(N(C)C)ccc1C21OC(=O)c2cc(C(=O)*)ccc21
What was measured:
[1] = target: T1, PSD-95-PDZ2 H225A (Homo sapiens, UniProt P78352, H225A); assay: FP saturation assay against PSD-95-PDZ2 Ala mutant H225A; type: binding; conditions: H225A mutation; TAMRA probes
T1 construct: measured against recombinantly expressed PSD-95-PDZ2 Ala mutants in FP saturation experiments; 7xHis (N); made in house; host or cells: Escherichia coli B21 pLys
Excerpt: (§1) Protein expression. The pRSET plasmids encoding the (7× His)-PSD-95-PDZ2 wild type and (7× His)-PSD-95-PDZ2-V178C sequences were obtained as described previously.^38 The DNA constructs encoding the PSD-95-PDZ2 mutants (K165A, K168A, F172A, F1721, S173A, N180A, T192A, K193A, H225A, E226A, V229A K233A) were produced using Phusion® site-directed mutagenesis kit on the pRSET plasmid of the wild type PSD-95-PDZ2 and with the primers listed in Table 1. The PSD-95-PDZ2 mutants were transformed and expressed as previously described,^38 in Escherichia coli B21 pLys cells at 37° C. and 0.5 mM isopropyl-D-thiogalactopyranoside (IPTG). […] Protein concentration was measured by NanoDrop 1000 and mass determination of proteins was analyzed using an Agilent 6410 triple quadrupole LC-MS with a Poroshell column, 300SB-C18 2.1×75 mm in a linear gradient of 5% to 60% B, using a binary solvent system [A: H2O/MeCN/TFA, 94.9/5/0.1 and B: H2O/MeCN/TFA, 5/94.9/0.1] with a flow of 0.75 mL min^−1. […] The proteins were analyzed using the following gradient: from 5% to 60% B for 4 min. and from 60 to 100% B from 4 to 4.5 min.
(§2) Fluorescence polarization (FP). […] Fluorescence polarization was measured using a Safire 2 plate reader. […] Then, the polarization was fitted into a one-site binding model using Prism software 8.0 (GraphPad), from which the Kd can be measured. […]

[2] = target: T2, PSD-95-PDZ2 V229A (Homo sapiens, UniProt P78352, V229A); assay: FP saturation assay against PSD-95-PDZ2 Ala mutant V229A; type: binding; conditions: V229A mutation; TAMRA probes
T2 construct: measured against recombinantly expressed PSD-95-PDZ2 Ala mutants in FP saturation experiments; 7xHis (N); made in house; host or cells: Escherichia coli B21 pLys
Excerpt: as §1, §2

[3] = target: T3, PSD-95-PDZ2 K165A (Homo sapiens, UniProt P78352, K165A); assay: FP saturation assay against PSD-95-PDZ2 Ala mutant K165A; type: binding; conditions: K165 mutation; TAMRA probes
T3 construct: measured against recombinantly expressed PSD-95-PDZ2 Ala mutants in FP saturation experiments; 7xHis (N); made in house; host or cells: Escherichia coli B21 pLys
Excerpt: as §1, §2

[4] = target: T4, PSD-95-PDZ2 (Homo sapiens, UniProt P78352); assay: Isothermal titration calorimetry (ITC); type: binding; conditions: ITC, 25° C.
T4 construct: 7xHis (N); made in house; host or cells: Escherichia coli B21 pLys (for the mutants, 'as previously described')
Method: Isothermal titration calorimetry (ITC). The ITC assays were performed in NaPi 50 nM, 50 nM NaCl, pH 7.2 buffer filtered with a Corning® bottle-top vacuum filter system of a pore size of 0.22 μM, that was used to dissolve the peptides. Proteins were dialyzed against this buffer using Amicon® Ultra-15 centrifugal filter units, with a MWCO 3000 Da.
This assay was performed on an ITC200. The instrument differential power (DP) was set to 10 and the syringe rotating speed to 600 RPM. The assay setup consisted of introducing the protein inside the cell and the peptide (titrant) on the syringe. Calorimetry was performed at 25° C. Each analysis was performed in triplicates. Furthermore, several runs of peptide into buffer were performed in order to remove injection residual heat. Runs were analyzed with Origin 7.0 software (OriginLab).

[5] = target: plasmin (Homo sapiens, UniProt P00747); assay: In vitro plasmin stability; type: in vitro ADME; conditions: plasmin (10 μg/mL) in phosphate buffered saline; 100 μM ligand, PBS with plasmin (10 μg/mL), 37° C., 0 to 360 minutes; mean n=3
Method: The in vitro plasmin stability of peptides with SEQ ID NOs: 12, 68, 99 and 163 were determined by incubating 100 μM of ligand in phosphate buffered saline (PBS) supplemented with plasmin (10 μg/mL) at 37° C. for 0 to 360 minutes. At selected time points during the incubation, the ligands were extracted from 80 μL of assay matrix by treatment with 80 μL of 50% acetonitrile (ACN). The samples were filtered and analysed by UPLC to determine the amount of ligand remaining. LC-MS analysis was performed to confirm ligand integrity and identify cleavage sites.

[6] = test system: HeLa cells stably expressing HaloGFP
Excerpt: To assess the cellular permeability and delivery to the cytosol of the compounds as defined herein, the cellular chloroalkane penetration assay (CAPA) may be used (Peraro et al. 2018). This assay takes advantage of a modified haloalkane dehalogenase designed to covalently bind chloroalkane (CA) molecules. A HeLa cell line expressing a fusion protein comprising a HaloTag, a green fluorescent protein (GFP) and a mitochondria-targeting peptide is used to report cytosolic delivery. […] Cells expressing the HaloTag enzyme are incubated with CA-tagged peptides. When these CA-peptides penetrate the cell membrane and reach the cytosol, they will bind to and react with the HaloTag (pulse step). Following a washing step, the cells are incubated with a CA-tagged dye that quantitatively penetrates the cell membrane and reacts with remaining unreacted HaloTag sites (chase step). Flow cytometry is used to measure the fluorescence intensity of the cells and the measured fluorescence is inversely proportional to the amount of CA-peptides that reach the penetrated the cells and can thus be used to assess cytosolic delivery. The obtained data is commonly expressed as CP50 values, the concentration at which 50% cell penetration is observed. […]

T4 sequence (P78352 160-246 limits assumed): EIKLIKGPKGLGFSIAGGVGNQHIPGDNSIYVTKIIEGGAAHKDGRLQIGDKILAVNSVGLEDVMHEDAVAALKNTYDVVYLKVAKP
T2 sequence (P78352 160-246 limits assumed, stated change not applied): as the sequence (P78352 160-246 limits assumed) above
Sequence of plasmin (P00747 581-810 limits assumed, species assumed): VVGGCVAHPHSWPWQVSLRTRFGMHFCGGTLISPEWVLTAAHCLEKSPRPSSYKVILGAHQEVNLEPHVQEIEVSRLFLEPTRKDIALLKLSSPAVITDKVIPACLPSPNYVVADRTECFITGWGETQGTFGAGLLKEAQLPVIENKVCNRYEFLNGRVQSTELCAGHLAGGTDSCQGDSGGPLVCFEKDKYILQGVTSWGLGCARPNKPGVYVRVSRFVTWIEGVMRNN
Sequence of plasmin (P00747 97-580 partner limits assumed, species assumed): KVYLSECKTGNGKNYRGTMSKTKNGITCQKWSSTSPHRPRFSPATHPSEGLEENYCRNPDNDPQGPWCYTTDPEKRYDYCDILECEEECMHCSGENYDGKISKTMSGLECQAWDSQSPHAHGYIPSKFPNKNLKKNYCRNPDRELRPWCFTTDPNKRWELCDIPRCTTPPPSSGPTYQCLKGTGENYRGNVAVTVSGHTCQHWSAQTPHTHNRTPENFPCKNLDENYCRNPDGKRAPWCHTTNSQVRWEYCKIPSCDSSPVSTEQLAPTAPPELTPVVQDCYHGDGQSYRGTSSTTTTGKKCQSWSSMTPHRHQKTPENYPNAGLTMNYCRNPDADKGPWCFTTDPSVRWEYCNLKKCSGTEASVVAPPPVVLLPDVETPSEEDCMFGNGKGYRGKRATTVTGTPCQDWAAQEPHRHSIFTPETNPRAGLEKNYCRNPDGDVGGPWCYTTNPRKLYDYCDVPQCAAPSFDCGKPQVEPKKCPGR
T1 sequence (P78352 160-246 limits assumed, stated change not applied): as the sequence (P78352 160-246 limits assumed) above
T3 sequence (P78352 160-246 limits assumed, stated change not applied): as the sequence (P78352 160-246 limits assumed) above

Molecule: CC[C@H](C)[C@H](NC(=O)[C@H](CO)NC(=O)[C@H](CO)NC(=O)[C@H](CC(C)C)NC(=O)[C@H](CCCCN)NC(=O)c1ccc2c(c1)C(=O)OC21c2ccc(N(C)C)cc2Oc2cc(N(C)C)ccc21)C(=O)N[C@@H](CCC(=O)O)C(=O)N[C@@H](CO)C(=O)N[C@@H](CC(=O)O)C(=O)N[C@H](C(=O)O)C(C)C [C-terminal GluN2B TAM RA probe] (5TAMRA-KLSSIESDV-OH; N-terminus assumed)
- fold decrease in affinity (Kd mutant normalized to PSD-95-PDZ2 WT) [1]: 5 fold
- fold loss in affinity (Kd mutant normalized to PSD-95-PDZ2 WT) [2]: 2 fold
- fold loss in affinity (Kd mutant normalized to PSD-95-PDZ2 WT) [3]: 5 fold

- ΔH [4]: -7.7418 ± 0.6837 kcal/mol
- −ΔS*T [4]: 0.3499 ± 0.3084 kcal/mol
- half-life at 100 μM [5]: 1.18 h
Molecule: CC[C@H](C)[C@@H]1NC(=O)[C@H]([C@@H](C)O)NC(=O)[C@H](CCCCN)NC(=O)[C@@H]2CCCN2C(=O)[C@H]([C@@H](C)O)NC(=O)CNC(=O)[C@H](CC(=O)O)NC(=O)CNC(=O)[C@H]([C@@H](C)O)NC(=O)[C@H](Cc2ccccc2)NC(=O)[C@H]([C@@H](C)O)NC(=O)[C@H]([C@@H](C)O)NC(=O)[C@H](CCC(=O)O)NC(=O)[C@H](CC(C)C)NC(=O)[C@H](Cc2c[nH]cn2)NC(=O)[C@H]([C@@H](C)O)NC(=O)[C@H](CCC(N)=O)NC(=O)CNC(=O)[C@H]2CCCN2C(=O)[C@H](CCC(N)=O)NC(=O)[C@H]([C@@H](C)O)NC(=O)[C@H](C(C)C)NC(=O)[C@H](CCCNC(=N)N)NC1=O [compound 12]

Molecule: cyclo-(THLETTFTGDGTP(K-CA)TIRVTQpGQ) [SEQ ID NO: 427]
- CP50 [6]: 31.1 ± 2.1 µM

From patent US20230220021A1, “CYCLIC PEPTIDE INHIBITORS OF PSD-95 AND USES THEREOF” (University of Copenhagen, priority 2020, published 2023)
